According to ChEMBL document CHEMBL4420076, “Amylin and calcitonin receptor agonist” (2017):
Numbered stars: 1 amine (or outer) side, 2 acyl side, 3 side chain; on linkers, the order of the positions; unused ones are H or OH. Square brackets hold non-standard residues; d marks the D form. Peptide text beside a SMILES is read from it. * marks the point of attachment. C20 diacid = O=C(O)CCCCCCCCCCCCCCCCCCC(=O)*; C16 diacid = O=C(O)CCCCCCCCCCCCCCC(=O)*; γGlu = O=C(O)[C@H](CCC(=O)[*:2])N[*:1]; AEEA = NCCOCCOCC(=O)O

Legend:
[1] = tested on: Rattus norvegicus; experiment: Reduction in food intake in Sprague-Dawley rat at 3 nmol/kg measured 24 to 48 hrs post dose relative to control; assay type: functional; set-up: scale not given: the % may be the effect or the level left
[2] = Solubility in 100 mM bistrispropane buffer at pH 7.5 incubated for 18 hrs by UPLC analysis; assay type: physicochemical
[3] = target: T1, Amylin receptor AMY3; CALCR/RAMP3 (Rattus norvegicus, UniProt P32214+Q9JJ73); experiment: Displacement of [125I]-labeled rat amylin from rat amylin receptor expressed in BHK tkts13 cell membranes co-expressing RAMP3 incubated for 120 mins by scintillation proximity assay
T1 sequence (P32214 whole entry): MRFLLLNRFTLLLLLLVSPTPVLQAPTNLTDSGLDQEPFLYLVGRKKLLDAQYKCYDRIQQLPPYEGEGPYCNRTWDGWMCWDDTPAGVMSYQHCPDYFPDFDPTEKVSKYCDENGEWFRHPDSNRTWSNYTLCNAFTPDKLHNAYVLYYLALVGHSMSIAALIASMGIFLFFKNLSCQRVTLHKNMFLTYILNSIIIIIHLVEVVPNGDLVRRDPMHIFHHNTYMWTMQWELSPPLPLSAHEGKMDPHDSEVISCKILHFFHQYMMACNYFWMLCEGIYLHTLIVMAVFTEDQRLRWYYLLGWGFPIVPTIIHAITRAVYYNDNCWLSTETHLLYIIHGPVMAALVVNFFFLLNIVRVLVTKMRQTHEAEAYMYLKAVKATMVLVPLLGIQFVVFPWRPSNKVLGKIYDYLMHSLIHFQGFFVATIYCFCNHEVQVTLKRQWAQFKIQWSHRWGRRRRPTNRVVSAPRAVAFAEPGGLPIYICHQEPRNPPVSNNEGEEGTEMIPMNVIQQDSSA
T1 sequence (Q9JJ73 whole entry): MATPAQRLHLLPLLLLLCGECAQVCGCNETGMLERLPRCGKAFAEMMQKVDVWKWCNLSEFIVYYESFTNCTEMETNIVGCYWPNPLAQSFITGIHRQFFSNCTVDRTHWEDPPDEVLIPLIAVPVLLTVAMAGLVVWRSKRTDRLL

[4] = Solubility in 100 mM glycylglycine buffer at pH 3.0 incubated for 18 hrs by UPLC analysis; assay type: physicochemical
[5] = Stability in pH 7.5 buffer assessed as lag time for fibril formation at 1 uM by Thioflavin T based fluorescence assay; assay type: physicochemical; details: pH 7.5, 1 µM
[6] = Solubility in 100 mM bistrispropane buffer at pH 6.0 incubated for 18 hrs by UPLC analysis; assay type: physicochemical
[7] = Solubility in 100 mM bistrispropane buffer at pH 6.5 incubated for 18 hrs by UPLC analysis; assay type: physicochemical
[8] = target: T2, Calcitonin receptor (Homo sapiens, UniProt P30988); experiment: Agonist activity at human calcitonin receptor expressed in BHK570 cells assessed as increase in intracellular cAMP concentration incubated for 3 hrs in absence of albumin by CRE luciferase reporter gene assay; assay type: functional, cell-based
T2 sequence (P30988 whole entry): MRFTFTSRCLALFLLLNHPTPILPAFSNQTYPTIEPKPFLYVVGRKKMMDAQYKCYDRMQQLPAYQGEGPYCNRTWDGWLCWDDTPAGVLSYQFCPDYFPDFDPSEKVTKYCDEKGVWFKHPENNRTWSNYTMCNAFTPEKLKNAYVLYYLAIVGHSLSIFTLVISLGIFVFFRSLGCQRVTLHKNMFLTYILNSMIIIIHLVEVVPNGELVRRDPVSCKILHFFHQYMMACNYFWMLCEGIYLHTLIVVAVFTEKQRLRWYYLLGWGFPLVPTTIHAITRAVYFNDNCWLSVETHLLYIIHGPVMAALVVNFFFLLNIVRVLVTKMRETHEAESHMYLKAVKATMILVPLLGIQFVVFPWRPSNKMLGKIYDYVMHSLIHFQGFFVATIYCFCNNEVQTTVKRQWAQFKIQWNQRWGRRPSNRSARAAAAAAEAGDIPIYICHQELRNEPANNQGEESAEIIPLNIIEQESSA

[9] = target: T3, Amylin receptor AMY3; CALCR/RAMP3 (Homo sapiens, UniProt O60896+P30988); experiment: Displacement of [125I]-labeled rat amylin from human amylin receptor expressed in BHK570 cell membranes co-expressing RAMP3 incubated for 120 mins by scintillation proximity assay
T3 sequence (P30988 whole entry): T2 sequence (P30988 whole entry)
T3 sequence (O60896 whole entry): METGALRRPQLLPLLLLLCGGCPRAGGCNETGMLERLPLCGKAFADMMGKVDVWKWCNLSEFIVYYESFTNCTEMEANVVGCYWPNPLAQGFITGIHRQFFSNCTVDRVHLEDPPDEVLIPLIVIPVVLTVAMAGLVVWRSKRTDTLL

[10] = Solubility in 100 mM bistrispropane buffer at pH 8.0 incubated for 18 hrs by UPLC analysis; assay type: physicochemical
[11] = Solubility in 100 mM glycylglycine buffer at pH 4.0 incubated for 18 hrs by UPLC analysis; assay type: physicochemical
[12] = tested on: Rattus norvegicus; experiment: Reduction in food intake in Sprague-Dawley rat at 3 nmol/kg measured 0 to 24 hrs post dose relative to control; assay type: functional; set-up: scale not given: the % may be the effect or the level left
[13] = Solubility in 100 mM bistrispropane buffer at pH 7.0 incubated for 18 hrs by UPLC analysis; assay type: physicochemical
[14] = Stability in pH 7.5 buffer assessed as compound recovery at 1 uM by Thioflavin T based fluorescence assay; assay type: physicochemical; details: read-out: Drug recovery
[15] = target: T2, Calcitonin receptor; experiment: Agonist activity at human calcitonin receptor expressed in BHK570 cells assessed as increase in intracellular cAMP concentration incubated for 3 hrs in presence of 10% FBS by CRE luciferase reporter gene assay; assay type: functional, cell-based
[16] = target: T3, Amylin receptor AMY3; CALCR/RAMP3; experiment: Agonist activity at human amylin receptor expressed in BHK570 cells co-expressing RAMP3 assessed as increase in intracellular cAMP concentration incubated for 3 hrs in presence of 10% FBS by CRE luciferase reporter gene assay; assay type: functional, cell-based
[17] = target: T3, Amylin receptor AMY3; CALCR/RAMP3; experiment: Agonist activity at human amylin receptor expressed in BHK570 cells co-expressing RAMP3 assessed as increase in intracellular cAMP concentration incubated for 3 hrs in absence of albumin by CRE luciferase reporter gene assay; assay type: functional, cell-based
[18] = Solubility in 100 mM glycylglycine buffer at pH 5.0 incubated for 18 hrs by UPLC analysis; assay type: physicochemical
[19] = target: T2, Calcitonin receptor; experiment: Displacement of [125I]-labeled human calcitonin from human calcitonin receptor expressed in BHK tkts13 cell membranes incubated for 1 hr by scintillation proximity assay

solubility at 18 h [2] [µM]	IC50 [3] [nM]	solubility at 18 h [4] [µM]	Time [5] [h]	solubility at 18 h [6] [µM]	solubility at 18 h [7] [µM]	EC50 [8] [nM]	IC50 [9] [nM]	solubility at 18 h [10] [µM]	solubility at 18 h [11] [µM]	solubility at 18 h [13] [µM]	remaining at 1 µM [14] [%]	EC50 [15] [nM]	EC50 [16] [nM]	EC50 [17] [nM]	solubility at 18 h [18] [µM]	IC50 [19] [nM]	Compound	Activity [1] [%]	Activity [12] [%]
≥ 200	0.029	≥ 200	> 45	≥ 200	≥ 200	0.052	0.166	≥ 200	≥ 200	≥ 200	100	0.068	0.123				CC(C)C[C@H](NC(=O)CNC(=O)[C@H](CO)NC(=O)[C@H](C)NC(=O)COCCOCCNC(=O)COCCOCCNC(=O)CC[C@H](NC(=O)CCCCCCCCCCCCCCCCCCC(=O)O)C(=O)O)C(=O)N[C@@H](CO)C(=O)N[C@H](C(=O)N[C@@H](C)C(=O)N[C@H](C(=O)N[C@@H](CC(C)C)C(=O)NCC(=O)N[C@@H](CCCNC(=N)N)C(=O)N[C@@H](CC(C)C)C(=O)N[C@@H](CO)C(=O)N[C@@H](CCC(N)=O)C(=O)N[C@@H](CCC(=O)O)C(=O)N[C@@H](CC(C)C)C(=O)N[C@@H](Cc1cnc[nH]1)C(=O)N[C@@H](CCC(=O)O)C(=O)N[C@@H](CC(C)C)C(=O)N[C@@H](CCC(N)=O)C(=O)N[C@H](C(=O)N[C@@H](Cc1ccc(O)cc1)C(=O)N1CCC[C@H]1C(=O)N[C@@H](CCCNC(=N)N)C(=O)N[C@H](C(=O)N[C@@H](CCC(=O)O)C(=O)N[C@H](C(=O)NCC(=O)N[C@@H](CO)C(=O)NCC(=O)N[C@H](C(=O)N[C@@H](Cc1ccc(O)cc1)C(N)=O)[C@@H](C)O)[C@@H](C)O)[C@@H](C)O)[C@@H](C)O)C(C)C)[C@@H](C)O	19	22
≥ 200	0.064	≥ 200		≥ 200	≥ 200		0.015	≥ 200	≥ 200	≥ 200		0.003	0.004	0.01	≥ 200		CC(C)C[C@H](NC(=O)[C@H](C)NC(=O)[C@H](C)NC(=O)[C@@H](NC(=O)[C@H](CO)NC(=O)[C@H](CC(C)C)NC(=O)[C@H](CCC(=O)O)NC(=O)[C@H](CO)NC(=O)[C@H](C)NC(=O)CCCCCCCCCCCCCCC(=O)O)[C@@H](C)O)C(=O)NCC(=O)N[C@@H](CCCNC(=N)N)C(=O)N[C@@H](CC(C)C)C(=O)N[C@@H](CO)C(=O)N[C@@H](C)C(=O)N[C@@H](CCC(=O)O)C(=O)N[C@@H](CC(C)C)C(=O)N[C@@H](Cc1cnc[nH]1)C(=O)N[C@@H](CCC(=O)O)C(=O)N[C@@H](CC(C)C)C(=O)N[C@@H](C)C(=O)N[C@H](C(=O)N[C@@H](CC(C)C)C(=O)N1CCC[C@H]1C(=O)N[C@@H](CCCNC(=N)N)C(=O)N[C@H](C(=O)N[C@@H](CCC(=O)O)C(=O)N[C@H](C(=O)NCC(=O)N[C@@H](CO)C(=O)NCC(=O)N[C@@H](CO)C(=O)N1CCC[C@H]1C(N)=O)[C@@H](C)O)[C@@H](C)O)[C@@H](C)O ({C16 diacid}-ASELSTAALGRLSAELHELATLPRTETGSGSP-NH2)	-2	28
≥ 200		≥ 200	> 45	≥ 200	≥ 200	0.012	0.159	≥ 200	≥ 200	≥ 200	100	0.035	0.067	0.017	≥ 200	0.05	CC(C)C[C@H](NC(=O)[C@H](C)NC(=O)[C@H](C)NC(=O)[C@@H](NC(=O)[C@H](CO)NC(=O)[C@H](CC(C)C)NC(=O)[C@H](CCC(=O)O)NC(=O)[C@H](CO)NC(=O)[C@H](C)NC(=O)COCCOCCNC(=O)COCCOCCNC(=O)CC[C@H](NC(=O)CCCCCCCCCCCCCCCCCCC(=O)O)C(=O)O)[C@@H](C)O)C(=O)NCC(=O)N[C@@H](CCCNC(=N)N)C(=O)N[C@@H](CC(C)C)C(=O)N[C@@H](CO)C(=O)N[C@@H](C)C(=O)N[C@@H](CCC(=O)O)C(=O)N[C@@H](CC(C)C)C(=O)N[C@@H](Cc1cnc[nH]1)C(=O)N[C@@H](CCC(=O)O)C(=O)N[C@@H](CC(C)C)C(=O)N[C@@H](C)C(=O)N[C@H](C(=O)N[C@@H](CC(C)C)C(=O)N1CCC[C@H]1C(=O)N[C@@H](CCCNC(=N)N)C(=O)N[C@H](C(=O)N[C@@H](CCC(=O)O)C(=O)N[C@H](C(=O)NCC(=O)N[C@@H](CO)C(=O)NCC(=O)N[C@@H](CO)C(=O)N1CCC[C@H]1C(N)=O)[C@@H](C)O)[C@@H](C)O)[C@@H](C)O ({C20 diacid-γGlu-AEEA-AEEA}-ASELSTAALGRLSAELHELATLPRTETGSGSP-NH2)		
≥ 200		≥ 200		≥ 200	≥ 200	0.014	0.029	≥ 200	≥ 200	≥ 200		0.023	0.094	0.02	≥ 200	0.022	CC(C)C[C@H](NC(=O)[C@H](C)NC(=O)[C@H](C)NC(=O)[C@@H](NC(=O)[C@H](CO)NC(=O)[C@H](CC(C)C)NC(=O)[C@H](CCC(=O)O)NC(=O)[C@H](CO)NC(=O)[C@H](C)NC(=O)CC[C@H](NC(=O)CCCCCCCCCCCCCCCCCCC(=O)O)C(=O)O)[C@@H](C)O)C(=O)NCC(=O)N[C@@H](CCCNC(=N)N)C(=O)N[C@@H](CC(C)C)C(=O)N[C@@H](CO)C(=O)N[C@H](CCC(=O)O)C(=O)N[C@@H](CCC(=O)O)C(=O)N[C@@H](CC(C)C)C(=O)N[C@@H](Cc1cnc[nH]1)C(=O)N[C@@H](CCC(=O)O)C(=O)N[C@@H](CC(C)C)C(=O)N[C@@H](C)C(=O)N[C@H](C(=O)N[C@@H](CC(C)C)C(=O)N1CCC[C@H]1C(=O)N[C@@H](CCCNC(=N)N)C(=O)N[C@H](C(=O)N[C@@H](CCC(=O)O)C(=O)N[C@H](C(=O)NCC(=O)N[C@@H](CO)C(=O)NCC(=O)N[C@@H](CO)C(=O)N1CCC[C@H]1C(N)=O)[C@@H](C)O)[C@@H](C)O)[C@@H](C)O ({C20 diacid-γGlu}-ASELSTAALGRLS[dE]ELHELATLPRTETGSGSP-NH2)		
